Key:
[1] = system: U87MG glioma cells; assay: Cell cycle (DNA content, PI) analysis; assay type: cell-based, human; conditions: 24 hours
Experimental: (§1) The rat (C6) and human (U87MG) glioblastoma cells used in this experiment were obtained from ATCC (Rockville, Md.), and cultured in Dulbecco's Modified Eagle's Medium (DMEM) containing 10% fetal bovine serum, penicillin (100 IU/mL) and streptomycin (100 μg/mL) at 37° C. in a 5% CO2 incubator. For all in vitro experiments, the cells were seeded in a 12-well plate at a density of 1×10^5 cells/well.

[2] = system: C6-glioma cells; assay: TUNEL assay and Hoechst staining in cultured cells; assay type: cell-based, rat
Experimental: as §1

[3] = In vivo toxicity by body weight of inoculated animals; parameters: species or system rat; conditions: glioblastoma rats, 2 mg/kg intranasal
Experimental: Further, the in vivo toxicity of NPs was evaluated by measuring a body weight of the inoculated animal. The change in body weight is reliable indicator for assessing the in vivo toxicity of a delivered drug. […] However, an insignificant change in body weight was shown in all animals due to cancer mass over time after tumor implantation (FIG. 8).

[4] = system: C-6 glioma cells; assay: Viability/apoptosis (calcein-AM / EthD-1) analysis; assay type: cell-based, rat; conditions: 24 hours
Experimental: as §1
An image was captured using a fluorescence microscope (Leica, Wetzlar, Germany). A percentage of live or dead cells was calculated using ImageJ software, developed by the National Institute of Health (NIH).

[5] = system: C6-Luc glioblastoma; assay: Intracranial C6-Luc orthotopic glioblastoma model, intranasal inoculation; assay type: in vivo, Sprague-Dawley rats
Experimental: The therapeutic efficacy of intranasally-delivered PTX-loaded NPs was evaluated in an intracranial C6-Luc orthotropic model. […] Therefore, as a PTX solvent, DMSO was used. In addition, to minimize DMSO-associated cytotoxicity, the PTX-loaded NPs were dissolved in PBS. The intranasal inoculation started at day 4 after tumor administration and was performed daily for a total of three times.
(§2) Specifically, intracranial tumor models were established from 6-week-old male Sprague-Dawley rats. The anesthetized rats were placed in a stereotaxic frame, and the skull was gently exposed to spot the bregma. The monitoring points for the bregma were as follows: anteroposterior, 0 mm; lateral, 2.0 mm; and ventral, 4.0 mm. A fine burr hole (0.7 mm) was created in the skull without disrupting the dura using a microsurgical drill. A total of 2×10^5/10 μl C6-Fluc cells were injected using a 26-gauge Hamilton microsyringe (80330; Reno, Nev., USA) at a speed of 0.9 μl/min. To generate a human glioblastoma model, 1×10^5/[…] of U87MG-Fluc cells were inoculated into immunodeficient nude mice by the same method. After the operation, the skin was sutured.
In vivo and ex vivo bioluminescence imaging was performed. For in vivo bioluminescence imaging, 150 mg/kg of D-luciferin (Caliper, Hopkinton, Mass.) was intraperitoneally injected into anesthetized animals. The live images were taken 15 minutes after the injection of D-luciferin by the IVIS Lumina caliper series (Life Technologies, Carlsbad, Calif.). […]
For Nissl staining, paraffin-embedded brain sections were deparaffinized, rehydrated, and then subjected to treatment with a 0.1% crystal violet solution according to a standard protocol. […] The cancer volume was calculated using ImageJ software as described above. […]
To investigate apoptosis in the de-paraffinized and hydrated brain sections, the TUNEL assay was performed using an in situ apoptosis detection kit (Millipore) according to the manufacturer's instruction. […] Fluorescent signals of the cells were measured by taking images using a fluorescence microscope (Leica, Wetzlar, Germany). […]

[6] = system: rat glioma cells; assay: Annexin V / 7-AAD apoptosis flow cytometry; assay type: cell-based; conditions: 24 hours
Experimental: as §1

[7] = system: C6 glioblastoma cells; assay: Cell cycle (DNA content, PI) analysis; assay type: cell-based, rat; conditions: 10 μM PTX equivalent, 24 hours
Experimental: as §1
And then, the cells were collected, and fixed with 70% ethanol at 4° C. for 2 hours. After incubation, the cells were washed, and additionally incubated with a DNase-free RNase (1 mg/mL) and 0.02 mg/mL of propidium iodide (PI). A cell cycle profile was studied using a flow cytometer (BD FACS Calibur™), and analyzed using FlowJo software.

[8] = system: U87MG-Fluc glioblastoma; assay: Human glioblastoma (U87MG-Fluc) model, intranasal inoculation; assay type: in vivo, immunodeficient nude mice; conditions: 1 mg/kg intranasal, three inoculations
Experimental: as §2, with “A total of 2×10^5/10 μl C6-Fluc cells were injected using a 26-gauge Hamilton microsyringe (80330;” left out, “sutured. […] In vivo and ex vivo bioluminescence imaging was performed. For in vivo bioluminescence imaging, 150 mg/kg of D-luciferin (Caliper, Hopkinton, Mass.) was intraperitoneally injected into anesthetized animals. The live images were taken 15 minutes after the injection of D-luciferin by the IVIS Lumina caliper series (Life Technologies, Carlsbad, Calif.). To evaluate ex vivo bioluminescence, the excised brain tissue was incubated with a D-luciferin substrate for 15 minutes, followed by imaging as described above. […] The cancer volume was calculated using ImageJ software as described above.” for “sutured.”

## CC(=O)O[C@H]1C(=O)[C@@]2(C)[C@H]([C@H](OC(=O)c3ccccc3)[C@]3(O)C[C@H](OC(=O)[C@H](O)[C@@H](NC(=O)c4ccccc4)c4ccccc4)C(C)=C1C3(C)C)[C@]1(OC(C)=O)CO[C@@H]1C[C@@H]2O [PTX, Paclitaxel]
[1]
  arrested population at the G2-M phase compared with C6 cells: slightly higher arrested population at the G2-M phase
[2]; compared with non-treated glioma cells
  nuclear morphology (Hoechst staining): severe formation of DNA fragmentation or segmentation or condensed nuclei
[2]; equivalent amounts of PTX
  number of apoptotic cells stained with TUNEL: concentration-dependently increased
[2]; fifth tested micromolar concentration (50 μM)
  number of TUNEL-positive cells: ~236.1
[2]; first tested micromolar concentration (0.01 μM)
  number of TUNEL-positive cells: approximately 77
[2]; fourth tested micromolar concentration (10 μM)
  number of TUNEL-positive cells: ~198.6
[2]; second tested micromolar concentration (0.1 μM)
  number of TUNEL-positive cells: ~97.5
[2]; third tested micromolar concentration (1 μM)
  number of TUNEL-positive cells: ~136.6
[3]
  change in body weight: significant effect on body weight loss
[4]; 0.01 μM
  dead cells: 8.3%
[4]; 0.1 μM
  dead cells: 23.1%
[4]; 1 μM
  dead cells: 31.8%
[4]; 10 μM
  dead cells: 49.2%
[4]; 50 μM
  dead cells: 63.8%
[5]; 2 mg/kg PTX equivalent intranasal, PBS 98.4
  tumor volume (Nissl staining): 90.1 mm^3
[5]; 2 mg/kg PTX intranasal, three daily inoculations from day 4, up to day 14
  tumor progression (in vivo bioluminescence imaging): relatively identical to the saline-treated group
[5]; day 14, 2 mg/kg intranasal
  increase in in vivo bioluminescence signals: 1.0×10^8 fold
[6]; 1 μM
  annexin V-positive cells: 30.1%
[6]; 10 μM
  annexin V-positive cells: 33.1%
[6]; 50 μM
  annexin V-positive cells: 34.2%
[6]; various concentrations
  number of annexin V and 7-AAD-positive cells: concentration-dependently increased
[7]
  cells at the G1 phase: 9%
[7]; non-treated 29%
  cells at the G2-M phase: 83%
[8]
  tumor growth / therapeutic effect compared with saline (BLI): did not show any therapeutic effect
